Results on 11 compounds are retold here after ChEMBL document CHEMBL3758109, “A novel triazole derivative of betulinic acid induces extrinsic and intrinsic apoptosis in human leukemia HL-60 cells” (Eur J Med Chem, 2016).

Experiment [1] in a line: Cytotoxicity against human HL60 cells assessed as cell growth inhibition at 10 uM after 48 hrs by MTT assay. The format is functional. The settings on record: HL-60, 48 h, read-out: GI.
The nature of experiment [2]: Cytotoxicity against human MIAPaCa2 cells assessed as cell growth inhibition at 10 uM after 48 hrs by MTT assay. The format is functional. Particulars: MIA PaCa-2, 48 h, read-out: GI. Background: Tetrazolium dyes change colour on reduction, which living cells bring about.
Experiment [3] is described as follows: Cytotoxicity against human PC3 cells assessed as cell growth inhibition at 10 uM after 48 hrs by MTT assay. The format is functional. The settings on record: PC-3, 48 h, read-out: GI.
For experiment [4], the system named is A549. The experiment can be described thus: Cytotoxicity against human A549 cells assessed as cell growth inhibition at 10 uM after 48 hrs by MTT assay. The format is functional. Particulars: A549, 48 h, read-out: GI.
A short description of experiment [5]: Cytotoxicity against human HL60 cells assessed as cell growth inhibition after 48 hrs by MTT assay. The settings on record: HL-60, 48 h. The format is functional, cell-based.
Experiment [6] can be described thus: Cytotoxicity against human MIAPaCa2 cells assessed as cell growth inhibition after 48 hrs by MTT assay. In kind it is functional, cell-based. Particulars: MIA PaCa-2, 48 h.
The nature of experiment [7]: Cytotoxicity against human PC3 cells assessed as cell growth inhibition after 48 hrs by MTT assay. In kind it is functional, cell-based. Particulars: PC-3, 48 h.
Experiment [8] deals with A549. The experiment in a line: Cytotoxicity against human A549 cells assessed as cell growth inhibition after 48 hrs by MTT assay. In kind it is functional, cell-based. Particulars: A549, 48 h.

On to `C=C(C)[C@@H]1CC[C@]2(C(=O)OCc3cn(-c4ccc(Br)cc4)nn3)CC[C@]3(C)[C@H](CC[C@@H]4[C@@]5(C)CC[C@H](O)C(C)(C)[C@@H]5CC[C@]43C)[C@@H]12`, for which the inhibition of growth at 10 µM in experiment [1] was 39%; in experiment [2], 61%; in experiment [3] it was 45%; with A549 [4], 54%. Besides, the IC50 (in general, the concentration that inhibits the measured activity by half) in experiment [5] amounted to 25 µM; in experiment [6], 7 µM; in experiment [7], 25 µM; with A549 [8] it was 8 µM.
Take `C=C(C)[C@@H]1CC[C@]2(C(=O)OCc3cn(-c4ccc(OC)cc4)nn3)CC[C@]3(C)[C@H](CC[C@@H]4[C@@]5(C)CC[C@H](O)C(C)(C)[C@@H]5CC[C@]43C)[C@@H]12`: the inhibition of growth at 10 µM in experiment [1] was determined as 8%; in experiment [2], 36%; in experiment [3], 2%; with A549 [4] it was 13%. Also, the IC50 in experiment [5] was 30 µM; in experiment [6], 22 µM; in experiment [7] it was greater than 100 µM; with A549 [8] it was greater than 100 µM.
On to `C=C(C)[C@@H]1CC[C@]2(C(=O)OCc3cn(-c4ccc5c(c4)OCO5)nn3)CC[C@]3(C)[C@H](CC[C@@H]4[C@@]5(C)CC[C@H](O)C(C)(C)[C@@H]5CC[C@]43C)[C@@H]12`, for which the inhibition of growth at 10 µM came to 53% in experiment [1], 56% in experiment [2], 49% in experiment [3] and 53% with A549 [4]. Further, the IC50 in experiment [5] was determined as 8 µM; in experiment [6], 8 µM; in experiment [7], 9 µM; in the experiment on A549 [8] it was 8 µM.
With `C=C(C)[C@@H]1CC[C@]2(C(=O)OCc3cn(-c4cc(F)c(F)cc4Br)nn3)CC[C@]3(C)[C@H](CC[C@@H]4[C@@]5(C)CC[C@H](O)C(C)(C)[C@@H]5CC[C@]43C)[C@@H]12`, the inhibition of growth at 10 µM in experiment [1] came out at 48%; in experiment [2], 36%; in experiment [3], 17%; in the experiment with A549 [4], 10%. Besides, the IC50 in experiment [5] stood at 12 µM; in experiment [6] it was 27 µM; in experiment [7], 100 µM; in the experiment on A549 [8] it was 100 µM.
Regarding `C=C(C)[C@@H]1CC[C@]2(C(=O)OCc3cn(-c4ccc(C#N)cc4)nn3)CC[C@]3(C)[C@H](CC[C@@H]4[C@@]5(C)CC[C@H](O)C(C)(C)[C@@H]5CC[C@]43C)[C@@H]12`, the inhibition of growth at 10 µM in experiment [1] worked out at 55%; in experiment [2], 57%; in experiment [3], 46%; in the experiment with A549 [4] it was 63%. Further, the IC50 in experiment [5] is 8 µM; in experiment [6], 8 µM; in experiment [7] it was 12 µM; with A549 [8], 7 µM.
For the compound `C=C(C)[C@@H]1CC[C@]2(C(=O)OCc3cn(-c4ccc5cc(OC)ccc5c4)nn3)CC[C@]3(C)[C@H](CC[C@@H]4[C@@]5(C)CC[C@H](O)C(C)(C)[C@@H]5CC[C@]43C)[C@@H]12`, the inhibition of growth at 10 µM in experiment [1] is 35%; in experiment [2], 12%; in experiment [3], 33%; in the experiment on A549 [4], 22%. For the same compound, the IC50 in experiment [5] was 29 µM; in experiment [6] it was greater than 100 µM; in experiment [7] it was 31 µM; in the experiment with A549 [8] it was greater than 100 µM.
Turning to `C=C(C)[C@@H]1CC[C@]2(C(=O)OCc3cn(-c4ccccc4I)nn3)CC[C@]3(C)[C@H](CC[C@@H]4[C@@]5(C)CC[C@H](O)C(C)(C)[C@@H]5CC[C@]43C)[C@@H]12`, the inhibition of growth at 10 µM in experiment [1] is 38%; in experiment [2] it was 53%; in experiment [3], 29%; with A549 [4] it was 40%. The IC50 is 27 µM in experiment [5], 8 µM in experiment [6], greater than 100 µM in experiment [7] and greater than 100 µM with A549 [8].
Take `C=C(C)[C@@H]1CC[C@]2(C(=O)O)CC[C@]3(C)[C@H](CC[C@@H]4[C@@]5(C)CC[C@H](O)C(C)(C)[C@@H]5CC[C@]43C)[C@@H]12` [BETULINIC ACID]: the inhibition of growth at 10 µM in experiment [1] came out at 69%; in experiment [2], 70%; in experiment [3], 70%; in the experiment on A549 [4], 68%. The IC50 in experiment [5] is 8 µM; in experiment [6] it was 7 µM; in experiment [7], 7 µM; in the experiment on A549 [8], 8 µM.
Consider `C=C(C)[C@@H]1CC[C@]2(C(=O)OCc3cn(-c4cccc(OC)c4)nn3)CC[C@]3(C)[C@H](CC[C@@H]4[C@@]5(C)CC[C@H](O)C(C)(C)[C@@H]5CC[C@]43C)[C@@H]12`, for which the inhibition of growth at 10 µM in experiment [1] was found to be 5%; in experiment [2] it was 28%; in experiment [3], 10%; with A549 [4], 10%. Besides, the IC50 is 25 µM in experiment [5], 22 µM in experiment [6], 25 µM in experiment [7] and 25 µM in the experiment on A549 [8].
Turning to `C=C(C)[C@@H]1CC[C@]2(C(=O)OCc3cn(-c4ccccc4OC)nn3)CC[C@]3(C)[C@H](CC[C@@H]4[C@@]5(C)CC[C@H](O)C(C)(C)[C@@H]5CC[C@]43C)[C@@H]12`, the inhibition of growth at 10 µM in experiment [1] worked out at 34%; in experiment [2], 50%; in experiment [3], 3%; in the experiment with A549 [4] it was 12%. Also, the IC50 in experiment [5] was 29 µM; in experiment [6], 9 µM; in experiment [7] it was greater than 100 µM; with A549 [8], greater than 100 µM.
For `C=C(C)[C@@H]1CC[C@]2(C(=O)OCc3cn(-c4ccc(OC)c(OC)c4)nn3)CC[C@]3(C)[C@H](CC[C@@H]4[C@@]5(C)CC[C@H](O)C(C)(C)[C@@H]5CC[C@]43C)[C@@H]12`, the inhibition of growth at 10 µM in experiment [1] came out at 7%; in experiment [2], 8%; in experiment [3], 8%; in the experiment with A549 [4], 6%. The IC50 in experiment [5] worked out at 8 µM; in experiment [6] it was 21 µM; in experiment [7] it was 11 µM; in the experiment on A549 [8], 16 µM.
